From ChEMBL document CHEMBL3045421, “5-Nitro-heteroarylidene analogs of 2-thiazolylimino-4-thiazolidinones as a novel series of antibacterial agents” (2013)
≈ marks a conversion by molar mass, not a printed value.

Experiments:
Format in all cases: functional
[1] = system: Helicobacter pylori; test: Antibacterial activity against Helicobacter pylori strain 1 assessed as diameter of growth inhibition zone at 32 ug/disk after 3-5 days by filter paper disk diffusion method; details: read-out: DIZ
[2] = system: Helicobacter pylori; test: Antibacterial activity against Helicobacter pylori strain 1 assessed as diameter of growth inhibition zone at 16 ug/disk after 3-5 days by filter paper disk diffusion method; details: read-out: DIZ
[3] = system: Helicobacter pylori; test: Antibacterial activity against Helicobacter pylori strain 1 assessed as diameter of growth inhibition zone at 8 ug/disk after 3-5 days by filter paper disk diffusion method; details: read-out: DIZ
[4] = system: Pseudomonas aeruginosa; test: microbe, parasite or virus in culture; details: ATCC 9027, 24 h
Description: Antibacterial activity against Pseudomonas aeruginosa ATCC 9027 assessed as growth inhibition after 24 hr by microdilution method

[5] = system: Klebsiella pneumoniae; test: microbe, parasite or virus in culture; details: ATCC 10031, 24 h
Description: Antibacterial activity against Klebsiella pneumoniae ATCC 10031 assessed as growth inhibition after 24 hr by microdilution method

[6] = system: Escherichia coli; test: microbe, parasite or virus in culture; details: ATCC 8739, 24 h
Description: Antibacterial activity against Escherichia coli ATCC 8739 assessed as growth inhibition after 24 hr by microdilution method

[7] = system: Bacillus subtilis; test: microbe, parasite or virus in culture; details: ATCC 6633, 24 h
Description: Antibacterial activity against Bacillus subtilis ATCC 6633 assessed as growth inhibition after 24 hr by microdilution method

[8] = system: Staphylococcus epidermidis; test: microbe, parasite or virus in culture; details: ATCC 12228, 24 h
Description: Antibacterial activity against Staphylococcus epidermidis ATCC 12228 assessed as growth inhibition after 24 hr by microdilution method

[9] = system: Staphylococcus aureus; test: microbe, parasite or virus in culture; details: ATCC 6538p, 24 h
Description: Antibacterial activity against Staphylococcus aureus ATCC 6538p assessed as growth inhibition after 24 hr by microdilution method

[10] = system: Helicobacter pylori; test: Antibacterial activity against Helicobacter pylori strain 3 assessed as diameter of growth inhibition zone at 64 ug/disk after 3-5 days by filter paper disk diffusion method; details: read-out: DIZ
[11] = system: Helicobacter pylori; test: Antibacterial activity against Helicobacter pylori strain 3 assessed as diameter of growth inhibition zone at 32 ug/disk after 3-5 days by filter paper disk diffusion method; details: read-out: DIZ
[12] = system: Helicobacter pylori; test: Antibacterial activity against Helicobacter pylori strain 3 assessed as diameter of growth inhibition zone at 16 ug/disk after 3-5 days by filter paper disk diffusion method; details: read-out: DIZ
[13] = system: Helicobacter pylori; test: Antibacterial activity against Helicobacter pylori strain 3 assessed as diameter of growth inhibition zone at 8 ug/disk after 3-5 days by filter paper disk diffusion method; details: read-out: DIZ
[14] = system: Helicobacter pylori; test: Antibacterial activity against Helicobacter pylori strain 2 assessed as diameter of growth inhibition zone at 64 ug/disk after 3-5 days by filter paper disk diffusion method; details: read-out: DIZ
[15] = system: Helicobacter pylori; test: Antibacterial activity against Helicobacter pylori strain 2 assessed as diameter of growth inhibition zone at 32 ug/disk after 3-5 days by filter paper disk diffusion method; details: read-out: DIZ
[16] = system: Helicobacter pylori; test: Antibacterial activity against Helicobacter pylori strain 2 assessed as diameter of growth inhibition zone at 16 ug/disk after 3-5 days by filter paper disk diffusion method; details: read-out: DIZ
[17] = system: Helicobacter pylori; test: Antibacterial activity against Helicobacter pylori strain 2 assessed as diameter of growth inhibition zone at 8 ug/disk after 3-5 days by filter paper disk diffusion method; details: read-out: DIZ
[18] = system: Helicobacter pylori; test: Antibacterial activity against Helicobacter pylori strain 1 assessed as diameter of growth inhibition zone at 64 ug/disk after 3-5 days by filter paper disk diffusion method; details: read-out: DIZ

SMILES	MIC [4] [µg/mL]	MIC [5] [µg/mL]	MIC [6] [µg/mL]	MIC [7] [µg/mL]	MIC [8] [µg/mL]	MIC [9] [µg/mL]	zone of inhibition at 32 µg/disc [1] [mm]	zone of inhibition at 16 µg/disc [2] [mm]	zone of inhibition at 8 µg/disc [3] [mm]	zone of inhibition at 64 µg/disc [10] [mm]	zone of inhibition at 32 µg/disc [11] [mm]	zone of inhibition at 16 µg/disc [12] [mm]	zone of inhibition at 8 µg/disc [13] [mm]	zone of inhibition at 64 µg/disc [14] [mm]	zone of inhibition at 32 µg/disc [15] [mm]	zone of inhibition at 16 µg/disc [16] [mm]	zone of inhibition at 8 µg/disc [17] [mm]	zone of inhibition at 64 µg/disc [18] [mm]
O=C1N/C(=N\c2nc3ccccc3s2)S/C1=C\c1ccc([N+](=O)[O-])o1	> 100	6.25 (≈ 16.8 µM)	3.12 (≈ 8.39 µM)	0.39 (≈ 1.05 µM)	0.39 (≈ 1.05 µM)	0.97 (≈ 2.6 µM)	28	24	20	34	30	28	25	30	26	24	22	33
O=C1N/C(=N\c2nccs2)S/C1=C\c1ccc([N+](=O)[O-])s1	> 100	> 100	> 100	0.78 (≈ 2.3 µM)	0.39 (≈ 1.15 µM)	1.56 (≈ 4.61 µM)	42	40	36	45	40	35	33	34	30	28	25	45
O=C1N/C(=N\c2nc(-c3ccccc3)cs2)S/C1=C\c1ccc([N+](=O)[O-])s1	> 100	> 100	> 100	> 100	> 100	> 100	–	–	–	–	–	–	–	–	–	–	–	–
COc1ccc(-c2csc(/N=C3\NC(=O)/C(=C/c4ccc([N+](=O)[O-])s4)S3)n2)cc1	> 100	> 100	100 (≈ 225 µM)	> 100	> 100	> 100	27	25	22	35	30	25	22	39	35	32	30	30

The next lines start with results.

MIC [4] [µg/mL]	MIC [5] [µg/mL]	MIC [6] [µg/mL]	MIC [7] [µg/mL]	MIC [8] [µg/mL]	MIC [9] [µg/mL]	SMILES	zone of inhibition at 32 µg/disc [1] [mm]	zone of inhibition at 16 µg/disc [2] [mm]	zone of inhibition at 8 µg/disc [3] [mm]	zone of inhibition at 64 µg/disc [10] [mm]	zone of inhibition at 32 µg/disc [11] [mm]	zone of inhibition at 16 µg/disc [12] [mm]	zone of inhibition at 8 µg/disc [13] [mm]	zone of inhibition at 64 µg/disc [14] [mm]	zone of inhibition at 32 µg/disc [15] [mm]	zone of inhibition at 16 µg/disc [16] [mm]	zone of inhibition at 8 µg/disc [17] [mm]	zone of inhibition at 64 µg/disc [18] [mm]
> 100	> 100	100 (≈ 223 µM)	> 100	100 (≈ 223 µM)	> 100	COc1ccc(-c2csc(/N=C3\NC(=O)/C(=C/C4C(=O)Nc5ccccc54)S3)n2)cc1 (configuration not stated)	6	6	6	6	6	6	6	6	6	6	6	6
> 100	> 100	> 100	> 100	> 100	> 100	O=C1N/C(=N\c2nc3ccccc3s2)S/C1=C\C1C(=O)Nc2ccccc21 (configuration not stated)	10	6	6	10	6	6	6	18	16	13	11	13
> 100	> 100	> 100	50 (≈ 125 µM)	25 (≈ 62.7 µM)	50 (≈ 125 µM)	O=C1N/C(=N\c2nc(-c3ccccc3)cs2)S/C1=C\c1ccc([N+](=O)[O-])o1	15	13	10	20	18	15	13	23	18	12	10	20
100 (≈ 233 µM)	> 100	> 100	12.5 (≈ 29.2 µM)	12.5 (≈ 29.2 µM)	25 (≈ 58.3 µM)	COc1ccc(-c2csc(/N=C3\NC(=O)/C(=C/c4ccc([N+](=O)[O-])o4)S3)n2)cc1	12	10	≤ 6	26	19	16	12	20	19	17	15	14
